According to patent publication US20170129864A1, “NEW SIGMA-RECEPTORS LIGANDS WITH ANTI-APOPTOTIC AND/OR PRO-APOPTOTIC PROPERTIES, OVER CELLULAR BIOCHEMICAL MECHANISMS WITH NEUROPROTECTIVE, ANTI-CANCER, ANTI-METASTATIC AND ANTI-(CHRONIC) INFLAMMATORY ACTION” (Anavex Life Sciences Corp., priority 2007, published 2017):
Each block holds one compound with its values, some of them ahead of it.

Tests used:
[1] = molecular target: T1, σ-2 receptors (Homo sapiens, UniProt Q5BJF2); test: affinity for σ-2 receptors; format: binding
[2] = system: Aβ25-35 induced neutotoxicity and oxidative stress; test: Aβ25-35 induced neurotoxicity and oxidative stress; format: in vivo; conditions: 0.03-1 mg/kg, i.p
[3] = system: anoxia that is caused by pentylenetetrazole (PTZ); test: protection against pentylenetetrazole (PTZ) induced anoxia and tonic crises; format: in vivo, mice
[4] = molecular target: σ-1 receptors (Homo sapiens, UniProt Q99720); test: agonistic or antagonistic action on σ-1 receptors
[5] = system: mice; test: forced swimming test; format: in vivo; set-up: dose or concentration left out as unconfirmed; conditions: forced swimming test in mice
[6] = system: scopolamine and dizocilpine (MK-801) induced amnesia or amyloid peptide β25-35 (Aβ25-35); test: anti-amnesic action against scopolamine, dizocilpine (MK-801) or Aβ25-35 induced amnesia; format: in vivo; conditions: per os (po), in mice
[7] = molecular target: T1, σ-2 receptors; test: agonistic action for σ-2
[8] = system: cancer cells; test: cytotoxic action on cancer cells via apoptosis; format: cell-based; conditions: depending on the cell line used

T1 sequence (Q5BJF2 whole entry): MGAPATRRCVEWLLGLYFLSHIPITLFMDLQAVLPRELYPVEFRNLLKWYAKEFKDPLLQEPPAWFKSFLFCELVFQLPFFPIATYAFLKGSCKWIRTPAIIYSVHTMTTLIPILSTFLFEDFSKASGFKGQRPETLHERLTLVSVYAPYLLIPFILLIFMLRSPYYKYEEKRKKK
Chain of σ-1 receptors (Q99720 whole entry): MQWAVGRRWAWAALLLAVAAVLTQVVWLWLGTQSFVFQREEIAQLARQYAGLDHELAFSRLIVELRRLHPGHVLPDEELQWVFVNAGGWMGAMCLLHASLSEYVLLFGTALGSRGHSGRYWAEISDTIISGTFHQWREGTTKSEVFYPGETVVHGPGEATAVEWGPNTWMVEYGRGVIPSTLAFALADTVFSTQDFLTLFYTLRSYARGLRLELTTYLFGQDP

- affinity for σ-2 receptors [1]: no affinity
Structure (SMILES): CN(C)CC1CCOC1(c1ccccc1)c1ccccc1 (stereo not drawn) [AE37, tetrahydro-N,N-dimethyl-2,2-diphenyl-3-furanomethanamine]
- activity against Aβ25-35 induced neurotoxicity and oxidative stress [2]: very performant

- Ki [1]: > 10 µM
- affinity for σ-2 receptors, times lower than for σ-1 ([1]; σ-2 versus σ-1): more than 100 times
- concentration at which agonistic action for σ-2 is shown [7]: over 10 μM
Structure (SMILES): CN(C)CC1COC(c2ccccc2)(c2ccccc2)C1 (stereo not drawn) [AE14, Tetrahydro-N,N,-dimethyl-5,5-diphenyl-3-furanomethanamine]
- anti-immobility action [5]: very strong anti-immobility action
- anti-amnesic action, active doses from [6]: ≥ 0.03 mg/kg
- concentration at which cytotoxic action on cancer cells is shown [8]: over 200 μM

Further lines, the compound ahead of its results:

Structure (SMILES): CNCC1CCOC1(c1ccccc1)c1ccccc1 (stereo not drawn) [AE37 Met, tetrahydro-N-methyl-2,2-diphenyl-3-furanomethanamine]
- protection against anoxia caused by pentylenetetrazole (PTZ) ([3]; in mice): exceptional protection
- activity relative to AE37 for the properties mentioned ([3]; mainly neuroprotective action): slightly more active than AE37

Structure (SMILES): CN(C)CC1COC2(C1)C1CC3CC(C1)CC2C3 (stereo not drawn) [AdAE, (DIHYDRO-4-(DIMETHYLAMINOMETHYL)SPIRO{FURANE-2(3H), 2′TRICYCLO[3.3.1.13,7]DECANE}]
- action on σ-1 receptors [4]: weak agonists

Structure (SMILES): CN(C)CC1COC(c2ccccc2)(C23CC4CC(CC(C4)C2)C3)C1 (stereo not drawn) [AdPhAE, 5-(TRICYCLO[3.3.1.13,7]DEC-1-YL)-TETRAHYDRO-N,N-DIMETHYL-5-PHENYL-3-FURANEMETHANAMINE-]
- action on σ-1 receptors [4]: weak agonists
